The record followed here is ChEMBL document CHEMBL1201862, “PubChem BioAssay data set” (2004).

What is called EC50 is the concentration needed to bring the measured effect to its halfway point. As a reminder, the IC50 is the concentration that gives 50% inhibition. In general, AC50 refers to the concentration at which the activity in the assay is half-maximal.

The target in test [1] is Neurotensin receptor type 1 (Homo sapiens, UniProt P30989). The test is classed as functional.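 Also: Image-based confirmatory dose-response assay measuring agonist activity at NTR1; NTR1-expressing U2OS osteosarcoma cells imaged for beta-arrestin GFP spot formation; agonist potency where compounds increase beta-arrestin recruitment.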
Chain of Neurotensin receptor type 1 (P30989 whole entry): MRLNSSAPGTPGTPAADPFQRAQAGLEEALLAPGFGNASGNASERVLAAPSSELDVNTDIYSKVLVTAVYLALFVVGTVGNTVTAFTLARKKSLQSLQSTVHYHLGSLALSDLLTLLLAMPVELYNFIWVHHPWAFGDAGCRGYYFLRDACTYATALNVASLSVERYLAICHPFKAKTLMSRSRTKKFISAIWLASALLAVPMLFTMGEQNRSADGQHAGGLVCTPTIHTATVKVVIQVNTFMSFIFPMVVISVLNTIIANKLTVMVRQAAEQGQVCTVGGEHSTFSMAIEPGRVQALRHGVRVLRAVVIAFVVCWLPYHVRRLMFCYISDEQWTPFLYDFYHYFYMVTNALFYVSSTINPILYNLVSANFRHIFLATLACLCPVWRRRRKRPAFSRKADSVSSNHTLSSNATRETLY
The subject of test [2] is HEK293. The experiment in a line: cells. The test is classed as functional, cell-based. To be noted: Homo sapiens.
Test [3] deals with HEK293. As to the kind of experiment: cells. The test is classed as functional, cell-based. To be noted: Homo sapiens. This is another data set of the same source.
In a further test the target is T1, Hexokinase HKDC1 (Homo sapiens, UniProt Q2TB90).
T1 sequence (Q2TB90 whole entry): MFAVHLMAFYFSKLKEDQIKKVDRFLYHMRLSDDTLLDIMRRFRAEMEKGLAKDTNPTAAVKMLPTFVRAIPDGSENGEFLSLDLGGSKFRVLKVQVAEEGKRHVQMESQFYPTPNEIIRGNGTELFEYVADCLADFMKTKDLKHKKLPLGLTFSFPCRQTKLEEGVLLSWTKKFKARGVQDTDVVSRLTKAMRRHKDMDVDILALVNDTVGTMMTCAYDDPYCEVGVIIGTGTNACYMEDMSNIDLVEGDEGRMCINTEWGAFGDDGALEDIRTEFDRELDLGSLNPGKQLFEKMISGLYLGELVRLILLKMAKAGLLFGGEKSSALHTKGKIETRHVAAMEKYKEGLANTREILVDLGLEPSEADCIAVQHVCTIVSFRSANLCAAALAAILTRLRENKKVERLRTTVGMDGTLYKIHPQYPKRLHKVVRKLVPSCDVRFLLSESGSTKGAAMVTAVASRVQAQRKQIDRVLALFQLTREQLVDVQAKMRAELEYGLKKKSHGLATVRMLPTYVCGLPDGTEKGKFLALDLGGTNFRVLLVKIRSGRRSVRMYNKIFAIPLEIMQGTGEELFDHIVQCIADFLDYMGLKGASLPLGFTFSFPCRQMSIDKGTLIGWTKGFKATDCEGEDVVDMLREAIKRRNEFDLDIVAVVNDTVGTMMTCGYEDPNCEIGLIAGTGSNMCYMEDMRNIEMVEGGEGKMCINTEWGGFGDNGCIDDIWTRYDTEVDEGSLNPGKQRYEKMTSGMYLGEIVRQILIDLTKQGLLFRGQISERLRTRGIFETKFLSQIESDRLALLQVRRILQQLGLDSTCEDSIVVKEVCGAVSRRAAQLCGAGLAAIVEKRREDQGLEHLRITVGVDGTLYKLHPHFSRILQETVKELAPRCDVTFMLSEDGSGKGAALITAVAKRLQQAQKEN
As to the kind of experiment: inhibition of HKDC1 glucose phosphorylation – biochemical, W721R variant, dose response (AID 504729). The format is functional.

The target in test [4] is T2, Apoptotic protease-activating factor 1 (Homo sapiens, UniProt O14727).
T2 sequence (O14727 whole entry): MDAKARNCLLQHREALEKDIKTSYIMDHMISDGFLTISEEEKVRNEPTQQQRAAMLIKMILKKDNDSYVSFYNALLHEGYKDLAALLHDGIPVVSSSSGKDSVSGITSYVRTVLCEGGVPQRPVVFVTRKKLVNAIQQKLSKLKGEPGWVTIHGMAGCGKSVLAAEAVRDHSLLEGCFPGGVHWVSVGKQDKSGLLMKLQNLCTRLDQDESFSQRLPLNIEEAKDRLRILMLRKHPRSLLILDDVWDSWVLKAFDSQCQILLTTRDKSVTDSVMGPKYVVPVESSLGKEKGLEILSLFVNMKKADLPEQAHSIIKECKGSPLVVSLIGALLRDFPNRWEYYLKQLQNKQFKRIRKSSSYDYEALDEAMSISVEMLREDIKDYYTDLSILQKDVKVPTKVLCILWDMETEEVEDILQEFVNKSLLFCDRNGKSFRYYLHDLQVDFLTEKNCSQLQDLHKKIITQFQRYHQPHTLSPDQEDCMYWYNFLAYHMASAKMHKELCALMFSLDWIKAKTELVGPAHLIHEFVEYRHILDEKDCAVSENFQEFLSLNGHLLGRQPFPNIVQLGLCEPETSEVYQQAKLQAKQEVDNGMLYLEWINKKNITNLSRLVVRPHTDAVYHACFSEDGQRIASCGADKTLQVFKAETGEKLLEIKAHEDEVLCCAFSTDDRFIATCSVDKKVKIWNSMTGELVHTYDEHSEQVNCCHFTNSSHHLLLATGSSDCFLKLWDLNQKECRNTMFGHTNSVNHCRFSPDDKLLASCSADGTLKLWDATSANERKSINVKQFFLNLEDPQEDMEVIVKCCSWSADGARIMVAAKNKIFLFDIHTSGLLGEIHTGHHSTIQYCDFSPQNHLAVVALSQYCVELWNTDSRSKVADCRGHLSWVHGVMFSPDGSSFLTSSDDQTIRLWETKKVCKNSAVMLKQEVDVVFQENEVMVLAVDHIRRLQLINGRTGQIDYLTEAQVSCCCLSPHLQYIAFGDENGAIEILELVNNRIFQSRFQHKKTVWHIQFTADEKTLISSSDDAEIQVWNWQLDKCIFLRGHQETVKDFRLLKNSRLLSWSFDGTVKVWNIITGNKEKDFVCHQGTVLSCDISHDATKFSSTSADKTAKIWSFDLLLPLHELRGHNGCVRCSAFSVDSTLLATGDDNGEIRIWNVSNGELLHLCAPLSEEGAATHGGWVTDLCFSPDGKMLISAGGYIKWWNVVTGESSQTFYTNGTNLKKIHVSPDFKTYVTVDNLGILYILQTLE
The format is functional.

In another test the test system is INS1. As to the kind of experiment: INS-1E survival protection against cytokine death – cell-based, luminescence, retest, dose response (AID 449756).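 Also: cell death triggered by IL-1 beta plus TNF-alpha plus IFN-gamma mixture; protective hits raise ATP signal compared with cytokine alone wells.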 The test is classed as functional. To be noted: Rattus norvegicus.
The next test concerns the target T3, Bcl-2-related protein A1 (Mus musculus, UniProt Q07440).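 Also: confirmatory dose–response counterscreen on Bfl-1, used to check hits from a UBC13 polyubiquitin inhibitor campaign.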
T3 sequence (Q07440 whole entry): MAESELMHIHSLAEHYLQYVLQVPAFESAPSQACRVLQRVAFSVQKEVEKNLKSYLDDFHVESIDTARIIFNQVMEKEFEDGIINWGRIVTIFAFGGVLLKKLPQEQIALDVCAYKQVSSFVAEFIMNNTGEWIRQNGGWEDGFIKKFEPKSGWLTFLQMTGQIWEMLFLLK
The format is functional.

Test [5] concerns the target T4, DNA repair protein RAD52 homolog (Homo sapiens, UniProt P43351).
T4 sequence (P43351 whole entry): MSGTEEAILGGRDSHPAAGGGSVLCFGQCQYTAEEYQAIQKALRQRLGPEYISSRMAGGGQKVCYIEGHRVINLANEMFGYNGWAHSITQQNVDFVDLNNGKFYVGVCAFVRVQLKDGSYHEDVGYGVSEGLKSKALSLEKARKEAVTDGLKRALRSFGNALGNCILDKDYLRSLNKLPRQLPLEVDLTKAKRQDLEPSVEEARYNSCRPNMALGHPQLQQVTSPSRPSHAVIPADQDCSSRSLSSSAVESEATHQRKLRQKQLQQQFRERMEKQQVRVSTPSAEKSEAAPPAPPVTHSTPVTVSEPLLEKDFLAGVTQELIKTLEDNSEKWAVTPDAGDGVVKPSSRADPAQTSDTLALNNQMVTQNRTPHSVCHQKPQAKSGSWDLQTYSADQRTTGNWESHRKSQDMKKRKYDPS
The format is functional, biochemical.

Activity calls are given as the source filed them.

On to `O=C(NCCc1ccccc1)C(c1cccs1)N(C(=O)CCl)c1ccc(Cl)cc1` (stereo not given), for which the EC50 in test [1] is 2.5 µM (active). Besides, the figures for the IC50 in the test with HEK293 [2], in the test on HEK293 [3] and on Hexokinase HKDC1 were > 20 µM (inactive), 11.5 µM (active) and 35.7 µM (inactive), respectively.
As for `CCCCCCCCCC[N+](C)(C)CC/C=C1/c2ccccc2Sc2ccc(Cl)cc21`, the figures for the IC50 (in test [4]; at Bcl-2-related protein A1) were 10.6 µM (active) and 8.08 µM (active), respectively. Besides, in the test with INS1, the half-maximal activity concentration (AC50) is 5.67 µM (active).
Regarding `COc1cc(/C=C/c2cc[n+](C)cc2)ccc1OCC(=O)Nc1ccc(Cl)c(Cl)c1`, the IC50 was 22.6 µM (active) in test [4] and > 20 µM (inactive) at Bcl-2-related protein A1. In addition, in test [5], the AC50 was 8.27 µM (active).
